Laboratory results from US9950048B2, “Immunogenic epitopes for immunotherapy” (immatics biotechnologies GmbH, priority 2007, dated 2018).
Ends that are not written are not given here.

Tests used:
[1] = target: HLA-A*0201 (Homo sapiens, UniProt P04439, D140Y/D185E/D98H/E176V/E277Q/G131W/G231S/I119V/I121R/I166T/I218V/L300P/L318F/N151K/N90K/P208A/P217A/Q86G/Q94H/R138H/R169H/T345S); test: HLA-A*0201 binding assay, ELISA EpI Kit (Example 4); conditions: for binding affinity to HLA-A*0201 (KD), in words: FIG. 4, lower KD = higher affinity
Experimental: FIG. 4 depicts binding affinities of selected peptides to HLA-A*0201 as measured by EpI ELISA according to Sylvester-Hvid, C, et al., 2002, Tissue Antigens, 59, 251-258). The analysis was limited to peptides known to be MHC class I binding peptides. Affinities of HLA-DR binding peptides cannot be measured with this assay.
The HLA binding assay was performed using the ELISA EpI Kit (obtained from Sceren Buus, Institute of Medical Microbiology and Immunology at the University of Copenhagen, Denmark) according to Sylvester-Hvid (Sylvester-Hvid, at al., 2002, Tissue Antigens, 59, 251-258) and the ELISA EpI Kit manual by the manufacturer.
Peptides were dissolved in DMSO+0.5% TFA (Merck, Darmstadt, Germany) at a concentration of 10 mg/ml. The highest peptide working solution used in this assay was 200 μM, therefore the stock solution was diluted 1:50 in a peptide-dilution buffer (PBS with 0.1% Lutrol-F68 and 10 mg/1 Phenol red) to a final volume of 100 μl. A serial five-fold dilution was performed with peptide-dilution buffer.
According to the manual, a 2-fold concentrated HLA-A*0201 solution was prepared by mixing 3×pH buffer (pH 6.6), Lutrol-F68, human β2m, recombinant HLA-A*0201 (all included in the ELISA EpI Kit) with PBS.
For the refolding process, 15 μl of peptide serial dilutions and 15 μl of the 2-fold concentrated MHC mix were mixed in 96-well plates (Nunc, Rochester, N.Y., USA) and incubated at 18° C. for 48 hours.
Maxisorp plates (Nunc, Rochester, N.Y.) were coated with 5 μg/ml w6/32 antibody in coating buffer (pH 9.6), incubated for 24 h at 4° C. and blocked with 5% skim milk powder (Merck, Darmstadt, Germany) in PBS over night at 4° C.
MHC complex standard (ELISA EpI Kit) was diluted with 2% skim milk powder in PBS (SMP/PBS) to a concentration of 10 nM. A serial 3.16-fold dilution was prepared and transferred to the coated and blocked Maxisorp plate. […] Plates were read at OD450 nm using the VERSAmax ELISA-Reader (Molecular Devices, Sunnyvale, Calif., USA). […]

[2] = tested on: CD8+ T cells of healthy donors; test: Priming of high-avidity CD8+ T cells with low density pMHC beads, tetramer staining and FACS sorting; type: cell-based, human; conditions: for establishment of specific high-avidity T-cell lines by FACS: healthy donors; for in vitro immunogenicity with low pMHC density aAPCs: low density beads (2 ng relevant pMHC)
Excerpt: Dependent on their ability to be activated by high- or low-density antigen, T cell lines can be divided into high- or low-avidity. As it has been shown before (Walter, S, et al., 2003, J. Immunol., 171, 4974-4978), human high-avidity CTLs can be raised successfully by using less peptide for activation compared to low-avidity CD8+ T cells.
To determine the ability of peptides to generate high-avidity CTL lines, isolated human CD8+ cells were primed and expanded by repeated in vitro stimulations with beads coated with low-density pMHC (peptide-MHC-complex) and anti-CD28 antibody in the presence of IL-12 and IL-2. After three stimulations, a fraction of in vitro primed T cells were pMHC-tetramer stained and detected by cytometric analysis. Tetramer-positive cells of each donor were pooled afterwards according to the antigen specificity, stained with pMHC-tetramer and human anti-CD8-FITC antibody and finally subjected to FACS sorting on a FACSAria. Sorted cells were cultured and expanded in the presence of irradiated feeder cells, cytokines and mitogen. As a read-out for the generation of primed high avidity antigen specific cells, pMHC-tetramer staining was performed. In order to determine their functionality, IFNγ production was assayed by ELISPOT and killing of tumor cell lines was examined using a cytotoxicity assay based on live/dead staining after restimulation of the cells with the corresponding peptide and tumor cell lines.
In vitro stimulations using artificial antigen presenting cells (aAPC) loaded with peptide-MHC complex (pMHC) and anti-CD28 antibody were conducted as described above. The only difference to the method described above was the fact that stimulations were performed with beads loaded with 2 ng relevant plus 200 ng irrelevant library (pMHC) MHC (low density beads) instead of 200 ng relevant MHC (high density beads). Thus, predominantly high avidity T cells were generated for deeper validation of peptides. After three stimulations, a fraction of in vitro primed T cells was pMHC-tetramer stained and detected by cytometric analysis. […] Tetramer-positive cells of each donor were pooled afterwards according to the antigen specificity, stained with the corresponding pMHC-tetramer and human anti-CD8-FITC antibody clone SK1 and finally subjected to FACS sorting on a FACSAria (BD Biosciences, Germany). […] As a read-out for the generation of primed high avidity antigen specific cells, pMHC-tetramer staining was performed as above and analyzed on a four-color FACSCalibur (BD Biosciences, Germany).

[3] = Particle size/shape measurement and analytical HPLC of reconstituted IMA910 suspension; type: physicochemical; conditions: sodium hydrogen carbonate (4.2%)
Experimental: Particle size distribution and particle shape measurement of the particles obtained after reconstitution have been performed by capturing direct images of each individual particle in the range of 0.25 to 100 μm followed by image analysis.
Furthermore, analytical HPLC was performed for a closer characterization of the obtained suspension.
IMA910 is dissolved in 700 μL sodium hydrogen carbonate (4.2%).

| binding affinity to HLA-A*0201 (KD), in words [1] | solubility in the solution used for reconstitution of IMA910 [3] | fold lower KD value compared with the majority of peptides ([1]; FIG. 4) | Sequence | establishment of specific high-avidity T-cell lines by FACS [2] | in vitro immunogenicity with low pMHC density aAPCs [2] |
| --- | --- | --- | --- | --- | --- |
| slightly higher binding affinity | almost insoluble | – | ILAPVILYI [NOX-001] | specific T-cell lines could be established by FACS | immunogenic in vitro |
| strongest binder | almost insoluble | 100 fold | ALFVRLLALA [TGFBI-001] | specific T-cell lines could be established by FACS | immunogenic in vitro |
